Results published in US10227344B2, “CK2 inhibitors, compositions and methods thereof” (Polaris Pharmaceuticals, Inc., priority 2016, dated 2019).

Tests used:
Type in all cases: cell-based
SKOV-3 = assay: Cancer cell panel, cell viability (resazurin): Ovarian, SKOV-3; conditions: SKOV-3 (Ovarian), 72 hours; labelled drug combined with Example 3
Procedure: (§1) Cells were plated in 96-well plates and treated for 72 hours with a serially diluted CK2 inhibitor or anti-cancer drug or their combination. The suspension cell lines were treated right after plating, while the adherent cells were allowed to attach overnight prior to the start of the treatment.
(§2) Cell viability was determined by adding resazurin to cell cultures and measuring fluorescence with a plate reader. Relative cell viability was calculated by dividing the cell viability signal from a test sample by that of a non-treated control. […] Bliss Independence and Highest Single Agent models were used to determine if there is synergy, additivity or antagonism between the CK2 inhibitor and an anti-cancer drug.

OVCAR-3 = assay: Cancer cell panel, cell viability (resazurin): Ovarian, OVCAR-3; conditions: OVCAR-3 (Ovarian), 72 hours; labelled drug combined with Example 3
Procedure: as §1, §2

Caov-3 = assay: Cancer cell panel, cell viability (resazurin): Ovarian, Caov-3; conditions: Caov-3 (Ovarian), 72 hours; labelled drug combined with Example 3
Procedure: as §1, §2

BxPC3 = assay: Cancer cell panel, cell viability (resazurin): Pancreatic, BxPC3; conditions: 72 hours, labelled drug combined with Example 3
HCT116 = assay: Cancer cell panel, cell viability (resazurin): Colon, HCT116; conditions: 72 hours, labelled drug combined with Example 3
Procedure: as §1, §2

HT29 = assay: Cancer cell panel, cell viability (resazurin): Colon, HT29; conditions: 72 hours, labelled drug combined with Example 3
Procedure: as §1, §2

Colo205 = assay: Cancer cell panel, cell viability (resazurin): Colon, Colo205; conditions: 72 hours, labelled drug combined with Example 3
LoVo = assay: Cancer cell panel, cell viability (resazurin): Colon, LoVo; conditions: 72 hours, labelled drug combined with Example 3
DLD-1 = assay: Cancer cell panel, cell viability (resazurin): Colon, DLD-1; conditions: DLD-1 (Colon), 72 hours; labelled drug combined with Example 3
H1299 = assay: Cancer cell panel, cell viability (resazurin): NSCLC, H1299; conditions: 72 hours, labelled drug combined with Example 3
A549 = assay: Cancer cell panel, cell viability (resazurin): NSCLC, A549; conditions: 72 hours, labelled drug combined with Example 3
Procedure: as §1, §2

H460 = assay: Cancer cell panel, cell viability (resazurin): NSCLC, H460; conditions: 72 hours, labelled drug combined with Example 3
H1975 = assay: Cancer cell panel, cell viability (resazurin): NSCLC, H1975; conditions: 72 hours, labelled drug combined with Example 3
H23 = assay: Cancer cell panel, cell viability (resazurin): NSCLC, H23; conditions: 72 hours, labelled drug combined with Example 3
Procedure: as §1, §2

H2122 = assay: Cancer cell panel, cell viability (resazurin): NSCLC, H2122; conditions: 72 hours, labelled drug combined with Example 3
SkBr-3 = assay: Cancer cell panel, cell viability (resazurin): Breast, SkBr-3; conditions: SkBr-3 (Breast), 72 hours; labelled drug combined with Example 3
Procedure: as §1, §2

MDA-MB-453 = assay: Cancer cell panel, cell viability (resazurin): Breast, MDA-MB-453; conditions: MDA-MB-453 (Breast), 72 hours; labelled drug combined with Example 3
MDA-MB-231 = assay: Cancer cell panel, cell viability (resazurin): Breast, MDA-MB-231; conditions: MDA-MB-231 (Breast), 72 hours; labelled drug combined with Example 3
MDA-MB-157 = assay: Cancer cell panel, cell viability (resazurin): Breast, MDA-MB-157; conditions: MDA-MB-157 (Breast), 72 hours; labelled drug combined with Example 3
BT-20 = assay: Cancer cell panel, cell viability (resazurin): Breast, BT-20; conditions: BT-20 (Breast), 72 hours; labelled drug combined with Example 3
BT-474 = assay: Cancer cell panel, cell viability (resazurin): Breast, BT-474; conditions: BT-474 (Breast), 72 hours; labelled drug combined with Example 3
Procedure: as §1, §2

ZR-75-1 = assay: Cancer cell panel, cell viability (resazurin): Breast, ZR-75-1; conditions: ZR-75-1 (Breast), 72 hours; labelled drug combined with Example 3
T47D = assay: Cancer cell panel, cell viability (resazurin): Breast, T47D; conditions: 72 hours, labelled drug combined with Example 3
A375 = assay: Cancer cell panel, cell viability (resazurin): Melanoma, A375; conditions: 72 hours, labelled drug combined with Example 3
SK-MEL-3 = assay: Cancer cell panel, cell viability (resazurin): Melanoma, SK-MEL-3; conditions: SK-MEL-3 (Melanoma), 72 hours; labelled drug combined with Example 3
Procedure: as §1, §2

SK-MEL-24 = assay: Cancer cell panel, cell viability (resazurin): Melanoma, SK-MEL-24; conditions: SK-MEL-24 (Melanoma), 72 hours; labelled drug combined with Example 3
WM-115 = assay: Cancer cell panel, cell viability (resazurin): Melanoma, WM-115; conditions: WM-115 (Melanoma), 72 hours; labelled drug combined with Example 3
RPMI8226 = assay: Cancer cell panel, cell viability (resazurin): multiple myeloma, RPMI8226; conditions: 72 hours, labelled drug combined with Example 3
Procedure: as §1, §2

Raji = assay: Cancer cell panel, cell viability (resazurin): Burkitt's Lymphoma, Raji; conditions: 72 hours, labelled drug combined with Example 3
Daudi = assay: Cancer cell panel, cell viability (resazurin): Burkitt's Lymphoma, Daudi; conditions: 72 hours, labelled drug combined with Example 3
Procedure: as §1, §2

K562 = assay: Cancer cell panel, cell viability (resazurin): Leukemia, K562; conditions: 72 hours, labelled drug combined with Example 3
HL60 = assay: Cancer cell panel, cell viability (resazurin): Leukemia, HL60; conditions: 72 hours, labelled drug combined with Example 3
EOL-1 = assay: Cancer cell panel, cell viability (resazurin): Leukemia, EOL-1; conditions: EOL-1 (Leukemia), 72 hours; labelled drug combined with Example 3

CC(=O)O[C@H]1C(=O)[C@@]2(C)[C@H]([C@H](OC(=O)c3ccccc3)[C@]3(O)C[C@H](OC(=O)[C@H](O)[C@@H](NC(=O)c4ccccc4)c4ccccc4)C(C)=C1C3(C)C)[C@]1(OC(C)=O)CO[C@@H]1C[C@@H]2O [Paclitaxel, paclitaxel]
synergy, additivity or antagonism of the combination of Example 3 with the anti-cancer drug (SKOV-3): + (Additive relative to each agent alone (CI = 0.9-1 by Bliss Independence Model and <0.9 by Highest Single Agent Model))
synergy, additivity or antagonism of the combination of Example 3 with the anti-cancer drug (OVCAR-3): + (Additive relative to each agent alone (CI = 0.9-1 by Bliss Independence Model and <0.9 by Highest Single Agent Model))
synergy, additivity or antagonism of the combination of Example 3 with the anti-cancer drug (Caov-3): + (Additive relative to each agent alone (CI = 0.9-1 by Bliss Independence Model and <0.9 by Highest Single Agent Model))
synergy, additivity or antagonism of the combination of Example 3 with the anti-cancer drug (BxPC3): + + (Slight synergy relative to each agent alone (CI = 0.75-0.9 by Bliss Independence Model))
synergy, additivity or antagonism of the combination of Example 3 with the anti-cancer drug (HCT116): + (Additive relative to each agent alone (CI = 0.9-1 by Bliss Independence Model and <0.9 by Highest Single Agent Model))
synergy, additivity or antagonism of the combination of Example 3 with the anti-cancer drug (HT29): + (Additive relative to each agent alone (CI = 0.9-1 by Bliss Independence Model and <0.9 by Highest Single Agent Model))
synergy, additivity or antagonism of the combination of Example 3 with the anti-cancer drug (Colo205): + + + (Synergy relative to each agent alone (CI = 0.4-0.74 by Bliss Independence Model))
synergy, additivity or antagonism of the combination of Example 3 with the anti-cancer drug (LoVo): + (Additive relative to each agent alone (CI = 0.9-1 by Bliss Independence Model and <0.9 by Highest Single Agent Model))
synergy, additivity or antagonism of the combination of Example 3 with the anti-cancer drug (DLD-1): + + + (Synergy relative to each agent alone (CI = 0.4-0.74 by Bliss Independence Model))
synergy, additivity or antagonism of the combination of Example 3 with the anti-cancer drug (H1299): + (Additive relative to each agent alone (CI = 0.9-1 by Bliss Independence Model and <0.9 by Highest Single Agent Model))
synergy, additivity or antagonism of the combination of Example 3 with the anti-cancer drug (A549): + (Additive relative to each agent alone (CI = 0.9-1 by Bliss Independence Model and <0.9 by Highest Single Agent Model))
synergy, additivity or antagonism of the combination of Example 3 with the anti-cancer drug (H460): + + (Slight synergy relative to each agent alone (CI = 0.75-0.9 by Bliss Independence Model))
synergy, additivity or antagonism of the combination of Example 3 with the anti-cancer drug (H1975): + (Additive relative to each agent alone (CI = 0.9-1 by Bliss Independence Model and <0.9 by Highest Single Agent Model))
synergy, additivity or antagonism of the combination of Example 3 with the anti-cancer drug (H23): + + (Slight synergy relative to each agent alone (CI = 0.75-0.9 by Bliss Independence Model))
synergy, additivity or antagonism of the combination of Example 3 with the anti-cancer drug (H2122): + (Additive relative to each agent alone (CI = 0.9-1 by Bliss Independence Model and <0.9 by Highest Single Agent Model))
synergy, additivity or antagonism of the combination of Example 3 with the anti-cancer drug (SkBr-3): + (Additive relative to each agent alone (CI = 0.9-1 by Bliss Independence Model and <0.9 by Highest Single Agent Model))
synergy, additivity or antagonism of the combination of Example 3 with the anti-cancer drug (MDA-MB-453): + (Additive relative to each agent alone (CI = 0.9-1 by Bliss Independence Model and <0.9 by Highest Single Agent Model))
synergy, additivity or antagonism of the combination of Example 3 with the anti-cancer drug (MDA-MB-231): + (Additive relative to each agent alone (CI = 0.9-1 by Bliss Independence Model and <0.9 by Highest Single Agent Model))
synergy, additivity or antagonism of the combination of Example 3 with the anti-cancer drug (MDA-MB-157): + (Additive relative to each agent alone (CI = 0.9-1 by Bliss Independence Model and <0.9 by Highest Single Agent Model))
synergy, additivity or antagonism of the combination of Example 3 with the anti-cancer drug (BT-20): + + (Slight synergy relative to each agent alone (CI = 0.75-0.9 by Bliss Independence Model))
synergy, additivity or antagonism of the combination of Example 3 with the anti-cancer drug (BT-474): + (Additive relative to each agent alone (CI = 0.9-1 by Bliss Independence Model and <0.9 by Highest Single Agent Model))
synergy, additivity or antagonism of the combination of Example 3 with the anti-cancer drug (ZR-75-1): + (Additive relative to each agent alone (CI = 0.9-1 by Bliss Independence Model and <0.9 by Highest Single Agent Model))
synergy, additivity or antagonism of the combination of Example 3 with the anti-cancer drug (T47D): + (Additive relative to each agent alone (CI = 0.9-1 by Bliss Independence Model and <0.9 by Highest Single Agent Model))
synergy, additivity or antagonism of the combination of Example 3 with the anti-cancer drug (A375): + (Additive relative to each agent alone (CI = 0.9-1 by Bliss Independence Model and <0.9 by Highest Single Agent Model))
synergy, additivity or antagonism of the combination of Example 3 with the anti-cancer drug (SK-MEL-3): + (Additive relative to each agent alone (CI = 0.9-1 by Bliss Independence Model and <0.9 by Highest Single Agent Model))
synergy, additivity or antagonism of the combination of Example 3 with the anti-cancer drug (SK-MEL-24): + (Additive relative to each agent alone (CI = 0.9-1 by Bliss Independence Model and <0.9 by Highest Single Agent Model))
synergy, additivity or antagonism of the combination of Example 3 with the anti-cancer drug (WM-115): + (Additive relative to each agent alone (CI = 0.9-1 by Bliss Independence Model and <0.9 by Highest Single Agent Model))
synergy, additivity or antagonism of the combination of Example 3 with the anti-cancer drug (RPMI8226): + (Additive relative to each agent alone (CI = 0.9-1 by Bliss Independence Model and <0.9 by Highest Single Agent Model))
synergy, additivity or antagonism of the combination of Example 3 with the anti-cancer drug (Raji): + + (Slight synergy relative to each agent alone (CI = 0.75-0.9 by Bliss Independence Model))
synergy, additivity or antagonism of the combination of Example 3 with the anti-cancer drug (Daudi): + (Additive relative to each agent alone (CI = 0.9-1 by Bliss Independence Model and <0.9 by Highest Single Agent Model))
synergy, additivity or antagonism of the combination of Example 3 with the anti-cancer drug (K562): + (Additive relative to each agent alone (CI = 0.9-1 by Bliss Independence Model and <0.9 by Highest Single Agent Model))
synergy, additivity or antagonism of the combination of Example 3 with the anti-cancer drug (HL60): + + (Slight synergy relative to each agent alone (CI = 0.75-0.9 by Bliss Independence Model))
synergy, additivity or antagonism of the combination of Example 3 with the anti-cancer drug (EOL-1): + (Additive relative to each agent alone (CI = 0.9-1 by Bliss Independence Model and <0.9 by Highest Single Agent Model))
